Assay [1] relates to Plasmodium falciparum 3D7 asexual blood stage. The experiment in a line: EC50 asexual blood stage growth. Particulars: serum: 0.5% AlbuMAX. The method, then:
(§1)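 The Reference Compound Library was tested by 10-point 3-fold dose response against P. cynomolgi Berok K4 asexual blood stages (SYBR proliferation assay, mefloquine background control). Culture medium contained 0.5% AlbuMAX or 20% M. fascicularis serum. P. falciparum 3D7 was tested in a 72-h SYBR Green assay with 0.5% AlbuMAX. Values are geometric mean EC50 over independent experiments; 10 uM is the top dose.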

Assay [2] has as its system Plasmodium cynomolgi Berok K4 asexual blood stage. The assay can be described thus: EC50 asexual blood stage growth. As for the experimental part: as §1
Assay [3] deals with primary human hepatocytes. The experiment in a line: CC20 hepatic nuclei (20% reduction); higher = less toxic. The method, then: (§2)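 Dose-response of P. vivax liver stages in primary human hepatocytes, with 8 points (10 uM-[…], v1) or 12 points in duplicate (50 uM-280 pM, v2). Read-out is high-content imaging of schizont net growth area, hypnozoite quantity and hepatic nuclei. EC50 and CC20 (20% nuclei loss) were fitted in CDD Vault from the highest-quality independent experiment; toxic-dose bell-shaped points were masked. '>' marks the highest concentration with less than 50% activity, and ND means a non-sigmoidal curve.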

Assay [4] relates to Plasmodium vivax liver stage (primary human hepatocyte culture). The method, then:
as §2

Assay [5] has the same test system. The assay can be described thus: maximum inhibition of schizont net growth area; higher = more active. The method, then:
as §2

Setting [6] is: serum: 20% M. fascicularis serum.
The mark [7] stands for this setting: P. vivax isolate: Pv914, hepatocyte lot: BGW, assay mode: Prophylactic, 6-day.
Setting [8] is: P. vivax isolate: Pv772, hepatocyte lot: BGW, assay mode: Prophylactic, 6-day.
Setting [9] is: P. vivax isolate: IVS17-02, hepatocyte lot: PDC, assay mode: Radical Cure, 8-day (treatment from day 5 post-infection).
Where [10] appears, read: P. vivax isolate: Pv360, hepatocyte lot: UBV, assay mode: Prophylactic, 6-day.
The mark [11] stands for this setting: P. vivax isolate: Pv357, hepatocyte lot: UBV, assay mode: Radical Cure, 8-day (treatment from day 5 post-infection).
The mark [12] stands for this setting: P. vivax isolate: Pv458, hepatocyte lot: UBV, assay mode: Radical Cure, 8-day (treatment from day 5 post-infection).
Where [13] appears, read: P. vivax isolate: Pv914, hepatocyte lot: BGW, assay mode: Radical Cure, 8-day (treatment from day 5 post-infection).
The mark [14] stands for this setting: P. vivax isolate: Pv836, hepatocyte lot: BGW, assay mode: Radical Cure, 8-day (treatment from day 5 post-infection).

Where a name gives a salt, the structure may show the parent alone.

As to `CC(C)(C)NCc1cc(Nc2ccnc3cc(Cl)ccc23)ccc1F`, the “EC50 asexual blood stage growth” value in assay [1] was determined as 9.8 nM; in assay [2] (serum: 0.5% AlbuMAX) it was 77.4 nM; in assay [2] (setting [6]), 38.8 nM.
With `CC(C)(C)NCc1cc(C(C)(C)C)cc(-c2ccc(Cl)cc2)c1O`, the “EC50 asexual blood stage growth” value is 14.1 nM in assay [1], 2 nM in assay [2] (serum: 0.5% AlbuMAX) and 6.8 nM in assay [2] (setting [6]).
The corresponding values for `Cc1nn(C)c(NC(=O)Cn2c(C(C)C)nc3ccccc32)c1-c1ccc(Cl)cc1F` [21A092] are 14.8 nM, 7 nM and 79.4 nM.
Regarding `Cc1c(Oc2cnc(C(=O)N3CC(C)(O)C3)cn2)ccc2c1B(O)OC2` [AN762], the “EC50 asexual blood stage growth” value in assay [1] stood at 101 nM; in assay [2] (serum: 0.5% AlbuMAX), 1750 nM; in assay [2] (setting [6]), 2200 nM.
As for `Cc1c(CCO)sc[n+]1CCCCCCCCCCCC[n+]1csc(CCO)c1C` [Albitiazolium], the “EC50 asexual blood stage growth” value was found to be 14.4 nM in assay [1], 367 nM in assay [2] (serum: 0.5% AlbuMAX) and 144 nM in assay [2] (setting [6]).
With `c1cc(C2CCC3(CC2)OOC2(O3)C3CC4CC(C3)CC2C4)ccc1OCCN1CCOCC1` (stereo not drawn) [Artefenomel], the results for the “EC50 asexual blood stage growth” value in assay [1], in assay [2] (serum: 0.5% AlbuMAX) and in assay [2] (setting [6]) were 42.4 nM, 3.4 nM and 2.3 nM, respectively.
As for `CC1CCC2C(C)C(=O)OC3OC4(C)CCC1C32OO4` (stereo not drawn) [Artemisinin], the results for the “EC50 asexual blood stage growth” value in assay [1], in assay [2] (serum: 0.5% AlbuMAX) and in assay [2] (setting [6]) were 94.8 nM, 7.3 nM and 9.4 nM, respectively.
The corresponding values for `CC1CCC2C(C)C(N3CCS(=O)(=O)CC3)OC3OC4(C)CCC1C32OO4` (stereo not drawn) [Artemisone] are 5 nM, 1 nM and 0.6 nM.
With `CC1CCC2C(C)C(O)OC3OC4(C)CCC1C32OO4` (stereo not drawn) [Artenimol], the “EC50 asexual blood stage growth” value in assay [1] amounted to 6.5 nM; in assay [2] (serum: 0.5% AlbuMAX), 0.6 nM; in assay [2] (setting [6]) it was 0.5 nM.
The corresponding values for `CC(C)(N)CNC(=O)CC1CCC2(CC1)OOC1(O2)C2CC3CC(C2)CC1C3` (stereo not drawn) [Arterolane] are 7.8 nM, 1.4 nM and 1 nM.
On the same counts, the results for `CC1CCC2C(C)C(OC(=O)CCC(=O)O)OC3OC4(C)CCC1C32OO4` (stereo not drawn) [Artesunate] are 41.3 nM, 6.2 nM and 3 nM.
On the same counts, the results for `O=C1C(O)=C([C@H]2CC[C@H](c3ccc(Cl)cc3)CC2)C(=O)c2ccccc21` [Atovaquone] are 0.9 nM, 1 nM and 1.7 nM.
In the case of `CCN(CC)CCCC(C)Nc1ccnc2cc(Cl)ccc12` (stereo not drawn) [Chloroquine], the “EC50 asexual blood stage growth” value in assay [1] came to 82.2 nM; in assay [2] (serum: 0.5% AlbuMAX), 183 nM; in assay [2] (setting [6]) it was 32.8 nM.
On the same counts, the results for `CC1Cc2c([nH]c3cc(Cl)c(F)cc23)C2(N1)C(=O)Nc1ccc(Cl)cc12` (stereo not drawn) [Cipargamin] are 1.4 nM, 3.3 nM and 15.4 nM.
The corresponding values for `CC1CCCC(CC2Cc3cc(O)cc(O)c3C(=O)O2)O1` (stereo not drawn) [Cladosporin] are 75.8 nM, 124 nM and 1430 nM.
On the same counts, the results for `CCC[C@@H]1C[C@@H](C(=O)N[C@@H]([C@H]2O[C@H](SC)[C@H](O)[C@@H](O)[C@H]2O)[C@H](C)Cl)N(C)C1` [Clindamycin] are over 10000 nM, over 10000 nM and 9210 nM.
For the compound `CC1CC(C)C(=O)C(C(O)CC2CC(=O)NC(=O)C2)C1` (stereo not drawn) [Cyclohexamide], the “EC50 asexual blood stage growth” value in assay [1] was 282 nM; in assay [2] (serum: 0.5% AlbuMAX) it was 35.2 nM; in assay [2] (setting [6]), 40.1 nM.
On the same counts, the results for `Cc1cc(Nc2ccc(C(F)(F)F)nc2)n2nc(C(C)(F)F)nc2n1` [DSM421] are 35.1 nM, 60.5 nM and 59.5 nM.
As for `Nc1ccc(S(=O)(=O)c2ccc(N)cc2)cc1` [Dapsone], the “EC50 asexual blood stage growth” value in assay [1], in assay [2] (serum: 0.5% AlbuMAX) and in assay [2] (setting [6]) was over 10000 nM each time.
As for `CC(=O)N(O)CCCCCNC(=O)CCC(=O)N(O)CCCCCNC(=O)CCC(=O)N(O)CCCCCN` [Deferoxamine], the “EC50 asexual blood stage growth” value in assay [1], in assay [2] (serum: 0.5% AlbuMAX) and in assay [2] (setting [6]) was over 10000 nM each time.
`CC12CCC3C(CC=C4CC(OS(=O)(=O)O)CCC43C)C1CCC2=O` (stereo not drawn) [Dehydroepiandrosterone sulphate]: the “EC50 asexual blood stage growth” value in assay [1], in assay [2] (serum: 0.5% AlbuMAX) and in assay [2] (setting [6]) was over 10000 nM in each case.
With `C[C@H]1c2cccc(O)c2C(=O)C2=C(O)[C@]3(O)C(=O)C(C(N)=O)=C(O)[C@@H](N(C)C)C3[C@@H](O)C21` (stereo partly drawn) [Doxycycline hydrochloride], in assay [3] (setting [7]), the CC20 hepatic nuclei was over 10 µM. Moreover, in assay [4] (setting [7]), the EC50 hypnozoite quantity is over 10000 nM and the “EC50 schizont net growth area” value is over 370 nM. Also, the maximum inhibition in assay [5] (setting [7]) came out at 68.3%.
Compound `CCC(C)C1OC2(CCC1C)CC1CC(CC=C(C)C(OC3CC(OC)C(OC4CC(OC)C(O)C(C)O4)C(C)O3)C(C)C=CC=C3COC4C(O)C(C)=CC(C(=O)O1)C34O)O2` (stereo not drawn) [Ivermectin] displayed a CC20 hepatic nuclei in assay [3] (setting [8]) of over 10 µM. Besides, in assay [4] (setting [8]), the EC50 hypnozoite quantity is over 10000 nM and the “EC50 schizont net growth area” value is over 3330 nM. In addition, the maximum inhibition in assay [5] (setting [8]) was 69.8%.
In the case of `CC1(C)c2nc(-c3ccc(F)cc3)c(Nc3ccc(F)cc3)n2CCN1C(=O)CN` [KAF156], the results for the CC20 hepatic nuclei in assay [3] (setting [9]) and in assay [3] (setting [10]) were over 1 µM and over 10 µM, respectively. Also, the EC50 hypnozoite quantity in assay [4] (setting [9]) is over 1000 nM; in assay [4] (setting [10]) it was 32.9 nM. The entries for the “EC50 schizont net growth area” value in assay [4] (setting [9]) and in assay [4] (setting [10]) were 330 nM and 14.1 nM, respectively. Besides, the maximum inhibition in assay [5] (setting [9]) was found to be 93.2%; in assay [5] (setting [10]), 103%.
As for `CCC(C(=O)C(C)C(O)C(C)CCc1ccc(C)c(O)c1C(=O)[O-])C1OC(CC)(C2CCC(O)(CC)C(C)O2)CC1C.[Na+]` (stereo not drawn) [Lasalocid-A], the CC20 hepatic nuclei in assay [3] (setting [11]) was over 10 µM. In assay [4] (setting [11]), the EC50 hypnozoite quantity turned out to be 1050 nM and the “EC50 schizont net growth area” value is 43.1 nM. The maximum inhibition in assay [5] (setting [11]) came out at 100%.
Compound `COC1CC(OC2CC(C3OC(C)(O)C(C)CC3C)OC2C2(C)CCC(C3(C)CCC4(CC(O)C(C)C(C(C)C5OC(O)(CC(=O)O)C(C)C(OC)C5OC)O4)O3)O2)OC(C)C1OC.N` (stereo not drawn) [Maduramicin] showed a CC20 hepatic nuclei in assay [3] (setting [12]) of 2.59 µM. Besides, in assay [4] (setting [12]), the EC50 hypnozoite quantity was found to be 22.5 nM and the “EC50 schizont net growth area” value amounted to 0.705 nM. Also, in assay [5] (setting [12]), the maximum inhibition stood at 101%.
The corresponding values for `CCC(C(=O)O)C1OC(C(C)C(O)C(C)C(=O)C(CC)C2OC3(C=CC(O)C4(CCC(C)(C5CCC(O)(CC)C(C)O5)O4)O3)C(C)CC2C)C(C)CC1C` (stereo not drawn) [Narasin] are 8.8 µM, 64.6 nM, 7.5 nM and 101%.
As to `N=C(N)c1ccc(OCCCCCOc2ccc(C(=N)N)cc2)cc1` [Pentamidine isethionate], the CC20 hepatic nuclei in assay [3] (setting [7]) is 5.54 µM; in assay [3] (setting [13]) it was over 5.56 µM. The EC50 hypnozoite quantity in assay [4] (setting [7]) was 5540 nM; in assay [4] (setting [13]) it was over 50000 nM. The “EC50 schizont net growth area” value is 551 nM in assay [4] (setting [7]) and 8390 nM in assay [4] (setting [13]). Also, the maximum inhibition in assay [5] (setting [7]) was 99.6%; in assay [5] (setting [13]) it was 94.4%.
In the case of `CCC(C(=O)O)C1CCC(C)C(C(C)C(O)C(C)C(=O)C(CC)C2OC3(C=CC(O)C4(CCC(C)(C5CCC(O)(CC)C(C)O5)O4)O3)C(C)CC2C)O1` (stereo not drawn) [Salinomycin], the CC20 hepatic nuclei in assay [3] (setting [14]) was over 10 µM. For the same compound, in assay [4] (setting [14]), the EC50 hypnozoite quantity was determined as 112 nM and the “EC50 schizont net growth area” value is 40.2 nM. Moreover, in assay [5] (setting [14]), the maximum inhibition came out at 102%.

The record behind these values is the supplement of paper PMC8497498.
